Measurements as given in the NIST ThermoML archive (doi:10.1021/acs.jced.6b00350).
Values joined by “and” are separate entries in the source; they are usually repeats but may differ in a detail not shown here. Equal entries are not always repeated.

Conditions: Liquid, Hot wire method

FC(F)CC(F)(F)F [1,1,1,3,3-pentafluoropropane]
Conditions	thermal conductivity
302.4 K, 9755 kPa	0.09135 W/m/K
302.4 K, 43574 kPa	0.104 W/m/K
302.41 K, 9754 kPa	0.09128 W/m/K
302.43 K, 27824 kPa	0.09846 W/m/K
302.43 K, 35521 kPa	0.1012 W/m/K
302.43 K, 35524 kPa	0.1013 W/m/K
302.44 K, 27822 kPa	0.09861 W/m/K
302.47 K, 4917 kPa	0.08905 W/m/K
302.47 K, 4920 kPa	0.08908 W/m/K
302.49 K, 21586 kPa	0.09609 W/m/K
302.49 K, 21587 kPa	0.09598 W/m/K
302.51 K, 297 kPa	0.08675 W/m/K
302.52 K, 295 kPa	0.08688 W/m/K
302.57 K, 15359 kPa	0.09341 W/m/K
302.57 K, 15368 kPa	0.0935 W/m/K
302.68 K, 68021 kPa	0.1116 W/m/K
302.68 K, 68023 kPa	0.1115 W/m/K
302.69 K, 62436 kPa	0.1101 W/m/K
302.7 K, 62429 kPa	0.1097 W/m/K
302.76 K, 52483 kPa	0.107 W/m/K
302.76 K, 52489 kPa	0.1069 W/m/K
302.81 K, 43572 kPa	0.104 W/m/K
302.82 K, 43572 kPa	0.1041 W/m/K
302.85 K, 35512 kPa	0.1012 W/m/K
302.85 K, 35521 kPa	0.1013 W/m/K
302.87 K, 9749 kPa	0.09105 W/m/K
302.87 K, 9754 kPa	0.091 W/m/K
302.88 K, 27813 kPa	0.09844 W/m/K
302.88 K, 27817 kPa	0.09814 W/m/K
302.93 K, 4918 kPa	0.08893 W/m/K
302.93 K, 4920 kPa	0.0888 W/m/K
302.94 K, 21581 kPa	0.09604 W/m/K
302.94 K, 21589 kPa	0.09618 W/m/K
302.99 K, 297 kPa	0.08639 W/m/K
302.99 K, 298 kPa	0.08647 W/m/K
303.03 K, 15369 kPa	0.09337 W/m/K
303.04 K, 15370 kPa	0.09341 W/m/K
303.11 K, 68011 kPa	0.1115 W/m/K
303.12 K, 68009 kPa	0.1114 W/m/K
303.13 K, 62430 kPa	0.11 W/m/K
303.13 K, 62436 kPa	0.11 W/m/K
303.21 K, 52481 kPa	0.1068 W/m/K
303.21 K, 52487 kPa	0.1068 W/m/K
303.27 K, 43574 kPa	0.104 W/m/K
303.27 K, 43576 kPa	0.1041 W/m/K
303.33 K, 35513 kPa	0.1011 W/m/K
303.33 K, 35514 kPa	0.1012 W/m/K
303.36 K, 9753 kPa	0.09097 W/m/K
303.36 K, 9758 kPa	0.09104 W/m/K
303.36 K, 27804 kPa	0.0984 W/m/K
303.37 K, 27811 kPa	0.09842 W/m/K
303.44 K, 4916 kPa	0.08869 W/m/K
303.44 K, 4920 kPa	0.08879 W/m/K
303.44 K, 21579 kPa	0.09595 W/m/K
303.44 K, 21587 kPa	0.09607 W/m/K
303.51 K, 294 kPa	0.08655 W/m/K
303.51 K, 297 kPa	0.08645 W/m/K
303.54 K, 15365 kPa	0.09343 W/m/K
303.54 K, 15366 kPa	0.09328 W/m/K
321.62 K, 4352 kPa	0.08273 W/m/K
321.63 K, 4356 kPa	0.08308 W/m/K
321.64 K, 337 kPa	0.08036 W/m/K
321.65 K, 338 kPa	0.08047 W/m/K
321.65 K, 69905 kPa	0.1085 W/m/K
321.65 K, 69906 kPa	0.1083 W/m/K
321.68 K, 58591 kPa	0.1047 W/m/K
321.68 K, 58592 kPa	0.1049 W/m/K
321.69 K, 40553 kPa	0.09923 W/m/K
321.7 K, 40558 kPa	0.09918 W/m/K
321.7 K, 49855 kPa	0.1015 W/m/K
321.7 K, 49873 kPa	0.1019 W/m/K
321.71 K, 33193 kPa	0.0964 W/m/K
321.71 K, 33197 kPa	0.09631 W/m/K
321.73 K, 26150 kPa	0.09344 W/m/K
321.73 K, 26151 kPa	0.093 W/m/K
321.74 K, 19697 kPa	0.09044 W/m/K
321.76 K, 19703 kPa	0.09051 W/m/K
321.77 K, 13835 kPa	0.08752 W/m/K
321.78 K, 13839 kPa	0.08772 W/m/K
321.81 K, 8795 kPa	0.08531 W/m/K
321.82 K, 8794 kPa	0.08538 W/m/K
322.02 K, 69892 kPa	0.1082 W/m/K
322.02 K, 69896 kPa	0.1083 W/m/K
322.06 K, 58582 kPa	0.1049 W/m/K
322.06 K, 58584 kPa	0.105 W/m/K
322.07 K, 4350 kPa	0.08295 W/m/K
322.07 K, 4352 kPa	0.08313 W/m/K
322.08 K, 49847 kPa	0.1021 W/m/K
322.09 K, 40542 kPa	0.09897 W/m/K
322.09 K, 49848 kPa	0.1021 W/m/K
322.1 K, 332 kPa	0.08025 W/m/K
322.1 K, 40546 kPa	0.09896 W/m/K
322.11 K, 332 kPa	0.08034 W/m/K
322.11 K, 33198 kPa	0.09595 W/m/K
322.12 K, 33200 kPa	0.09642 W/m/K
322.14 K, 26147 kPa	0.09346 W/m/K
322.15 K, 26148 kPa	0.09328 W/m/K
322.18 K, 19689 kPa	0.09041 W/m/K
322.18 K, 19694 kPa	0.09034 W/m/K
322.23 K, 13831 kPa	0.08764 W/m/K
322.23 K, 13837 kPa	0.08773 W/m/K
322.27 K, 8791 kPa	0.08514 W/m/K
322.27 K, 8795 kPa	0.08522 W/m/K
322.42 K, 69875 kPa	0.1077 W/m/K
322.42 K, 69881 kPa	0.1077 W/m/K
322.47 K, 58570 kPa	0.1047 W/m/K
322.48 K, 58576 kPa	0.1046 W/m/K
322.51 K, 49828 kPa	0.1017 W/m/K
322.51 K, 49834 kPa	0.1019 W/m/K
322.53 K, 40525 kPa	0.09861 W/m/K
322.53 K, 40531 kPa	0.09882 W/m/K
322.56 K, 4352 kPa	0.0827 W/m/K and 0.08272 W/m/K
322.56 K, 33194 kPa	0.09577 W/m/K and 0.09565 W/m/K
322.6 K, 328 kPa	0.08026 W/m/K
322.61 K, 332 kPa	0.08024 W/m/K
322.61 K, 26147 kPa	0.09305 W/m/K
322.61 K, 26148 kPa	0.09299 W/m/K
322.65 K, 19690 kPa	0.0904 W/m/K
322.66 K, 19689 kPa	0.09023 W/m/K
322.71 K, 13830 kPa	0.08772 W/m/K
322.72 K, 13830 kPa	0.08785 W/m/K
322.76 K, 8791 kPa	0.08512 W/m/K
322.77 K, 8793 kPa	0.08496 W/m/K
322.85 K, 69859 kPa	0.1077 W/m/K
322.86 K, 69861 kPa	0.1078 W/m/K
322.92 K, 58557 kPa	0.1047 W/m/K
322.92 K, 58569 kPa	0.1047 W/m/K
322.96 K, 49820 kPa	0.1018 W/m/K
322.97 K, 49830 kPa	0.1018 W/m/K
323 K, 40517 kPa	0.09874 W/m/K
323 K, 40525 kPa	0.09862 W/m/K
323.04 K, 33192 kPa	0.0959 W/m/K
323.05 K, 33192 kPa	0.09594 W/m/K
323.09 K, 4348 kPa	0.08267 W/m/K
323.1 K, 4349 kPa	0.08248 W/m/K
323.1 K, 26147 kPa	0.09286 W/m/K
323.11 K, 26150 kPa	0.09307 W/m/K
323.15 K, 332 kPa	0.0802 W/m/K
